From US8313934B2, “Reduction of the toxic effect of impurities from raw materials by extractive fermentation” (LS9, Inc., priority 2007, dated 2012)

Assays:
LS9-ID1 [1] = assay: Effect of common toxins on growth of the production strain (shake flasks, OD); assay type: cell-based, E. coli; details: for % Inhibition for LS9-ID1: toxin added at the reported MIC, growth by OD vs control without toxin
Method: A culture of a genetically engineered strain of E. coli, LS9-ID1, was transferred from a frozen stock and incubated in Luria-Bertani broth for approximately three hours. The culture was transferred to a defined mineral medium commonly used for E. coli, M9, buffered and supplemented with thiamine and trace minerals. The culture was further incubated and used to inoculate the same fermentation media with 50 g/L of carbohydrate (glucose, fructose, some pentoses).
The toxicity towards microbial strains of many of the compounds in hemicelluloses and cellulose hydrolysates has been examined individually. In the case of E. coli, the toxicity is related to the hydrophobicity of the toxin. The effects of several of these compounds on the growth of certain microbial strains were evaluated. The tests were done in shake flasks by following a protocol similar to that described in example 1, above, but without the induction and the addition of alcohols.
Other concentrations were also tested to determine the range where the effect was observed. The inhibition level was reported as the ratio between growth in the absence of the toxin (control) minus growth in the presence of the toxin and growth in the control.

E. coli = details: minimal inhibitory concentration that completely inhibits growth, as reported in the literature; cited from earlier work
LS9-ID1 [2] = assay: Extractive fermentation with toxin, with or without hydrophobic solvent: cell growth (OD600); assay type: cell-based, E. coli; details: for % Growth With C1:C12: methyl laureate as solvent; for % Growth With Hexadecane: hexadecane as solvent; for % Growth With Eicosadecene: eicosadecene as solvent; for % Growth With Biodiesel: commercial biodiesel as solvent
Method: Two sets of duplicate flasks were prepared with different concentrations of the toxin to be tested. One set served as the control, which included the toxin without the extractant, the hydrophobic solvent. In the second set, the extractant was added in a ratio of 1 volume of solvent per 3 volumes of fermentation broth. The flasks were then inoculated and incubated at 37° C. in agitated shakers. When the OD 600 reached a value of 1, the cultures were induced by the addition of 1 mM IPTG and 20 ml/L methanol. Cell growth and production of fatty acids methyl esters (FAME) was measured at 24 hours. In cultures without hydrophobic solvents (control), OD was measured directly in the fermentation broth. […] The OD was measured in this suspension.
(§1) To analyze FAME production, 0.5 ml of broth was well mixed with 0.5 ml of ethylacetate. The organic phase was analyzed by gas chromatography. In the samples with solvents, additional dilutions were applied. All the toxins were tested with ethyl oleate (C2:C18 ester, or C2:C18) as a solvent representative of a biodiesel. Growth and FAME production are reported as percentage of the control condition (no toxin added). Each result is the average of duplicate experiments.
The solvents methyl laureate (C1:C12 ester, or C1:C12), hexadecane (an alkane), eicosadecene (an alkene) and commercial biodiesel were tested.

LS9-ID1 [3] = assay: Extractive fermentation with toxin, with or without hydrophobic solvent: FAME production (GC); assay type: cell-based, E. coli; details: 24 h, % of no-toxin control; for % FAME titer With C2:C18: ethyl oleate 1:3
Method: The production of fatty acid methyl and ethyl esters was analyzed by gas chromatography with flame ionization detector (GC-FID). The samples from fermentation broth were extracted with ethyl acetate in a ratio of 1:1 vol/vol. After strong vortexing, the samples were centrifuged and the organic phase was analyzed by gas chromatography (GC). The analysis conditions were as follows: instrument: Trace GC Ultra, Thermo Electron Corporation with Flame ionization detector (FID) detector; column: DB-1 (1% diphenyl siloxane; 99% dimethyl siloxane) CO1 UFM 1/0.1/5 01 DET from Thermo Electron Corporation, phase pH 5, FT: 0.4 μm, length 5 m, id: 0.1 mm; inlet conditions: 250° C. splitless, 3.8 min 1/25 split method used depending upon sample concentration with split flow of 75 ml/min; carrier gas, flow rate: Helium, 3.0 ml/min; block temperature: 330° C.; oven temperature: 0.5 minute hold at 50° C.; 100° C./minute to 330° C., 0.5 minute hold at 330° C.; detector temperature: 300° C.; injection volume: 2 μL; run time/flow rate: 6.3 min/3.0 ml/min (splitless method), 3.8 min/1.5 ml/min (split 1/25 method), 3.04 min/1.2 ml/min (split 1/50 method).
To determine the ability to perform extractive fermentations using products generated by the engineered strain of E. coli, LS9-ID1, to improve the performance of the fermentation in the presence of toxins, the fermentations were performed using a protocol similar to that described in example 1, above. Two sets of duplicate flasks were prepared with different concentrations of the toxin to be tested. One set served as the control, which included the toxin without the extractant, the hydrophobic solvent. In the second set, the extractant was added in a ratio of 1 volume of solvent per 3 volumes of fermentation broth. The flasks were then inoculated and incubated at 37° C. in agitated shakers. When the OD 600 reached a value of 1, the cultures were induced by the addition of 1 mM IPTG and 20 ml/L methanol. Cell growth and production of fatty acids methyl esters (FAME) was measured at 24 hours. In cultures without hydrophobic solvents (control), OD was measured directly in the fermentation broth. In flasks with solvent there was interference in OD measurement, and to eliminate this problem, the broth was centrifuged and the cell pellet was resuspended in the same volume of distilled water. The OD was measured in this suspension.
as §1

LS9-ID1 [4] = assay: Solvent pretreatment of toxin-spiked media before fermentation: cell growth; assay type: cell-based, E. coli; details: Table 12, toxin 1.5 g/L; for % Growth With Pretreatment: media extracted with methyl laureate 1:3 vol:vol, 37° C., 60 minutes, before inoculation; for % Growth No solvent: untreated media
Excerpt: The raw materials can be treated to remove the toxin prior to the fermentation. For this purpose it will be possible to use the bioproduct after the initial steps of purification (centrifugal separation for example) but prior to any polishing or finishing step. The sugar containing raw material can be placed in contact with the solvent in a batch or in a continuous counter current mode. After extraction, the raw material (aqueous phase) can be separated from the solvent by decantation or centrifugation.
Tests were performed similarly to that described in the above Examples. Fermentation media was prepared and spiked with the desired concentration of the toxin. Methyl laureate was used as a solvent representative of biodiesel. It was added to the fermentation media in a 1:3 vol:vol ratio. Solvent and broth were thoroughly mixed at 37° C. for 60 minutes. The aqueous layer was decanted in a separatory funnel and collected. The resulting media was then inoculated with LS9-ID1 and growth was compared against similar media containing the toxin but which had not been treated.

[5] = toxin 1.5 g/L, ethyl oleate 1:3 vol solvent:broth, 24 h, % of no-toxin control
[6] = toxin 1.5 g/L, 24 h, % of no-toxin control (Tables 3-7)
[7] = toxin 3.0 g/L, ethyl oleate 1:3, 24 h, % of no-toxin control
[8] = toxin 3.0 g/L, 24 h, % of no-toxin control (Tables 3-7)

| SMILES | % Inhibition for LS9-ID1 (LS9-ID1 [1]) [%] | Reported MIC (E. coli) [g/L] | % of Growth inhibition (LS9-ID1 [1]; toxin 1.00 g/L) [%] | % of Growth inhibition (LS9-ID1 [1]; toxin 1.50 g/L) [%] | % of Growth inhibition (LS9-ID1 [1]; toxin 3.00 g/L) [%] | % Growth With C1:C12 (LS9-ID1 [2]; Table 8, toxin 1.5 g/L) [%] | % Growth No solvent (LS9-ID1 [2]; Table 8, toxin 1.5 g/L) [%] | % Growth With Hexadecane (LS9-ID1 [2]; Table 9, toxin 1.5 g/L) [%] | % Growth No solvent (LS9-ID1 [2]; Table 9, toxin 1.5 g/L) [%] | % Growth With Eicosadecene (LS9-ID1 [2]; Table 10, toxin 1.5 g/L) [%] | % Growth No solvent (LS9-ID1 [2]; Table 10, toxin 1.5 g/L) [%] | % Growth With C2:C18 (LS9-ID1 [2]; [5]) [%] | % Growth No solvent (LS9-ID1 [2]; [6]) [%] | % Growth With C2:C18 (LS9-ID1 [2]; [7]) [%] | % Growth No solvent (LS9-ID1 [2]; [8]) [%] | % FAME titer With C2:C18 (LS9-ID1 [3]; toxin 1.5 g/L) [%] | % FAME titer No solvent (LS9-ID1 [3]; toxin 1.5 g/L) [%] | % FAME titer With C2:C18 (LS9-ID1 [3]; toxin 3.0 g/L) [%] | % FAME titer No solvent (LS9-ID1 [3]; toxin 3.0 g/L) [%] | % Growth With Biodiesel (LS9-ID1 [2]; Table 11, toxin 1.5 g/L) [%] | also measured |
| --- | --- | --- | --- | --- | --- | --- | --- | --- | --- | --- | --- | --- | --- | --- | --- | --- | --- | --- | --- | --- | --- |
| Cc1ccc(O)c(O)c1 [4-Methyl catechol] | 25 | 1.5 |  |  |  |  |  |  |  |  |  |  |  |  |  |  |  |  |  |  |  |
| COc1ccccc1O [Guaiacol] | 100 | 3.0 | 0 | 41.7 | 100 | 88.6 | 18.3 | 41.8 | 12.7 | 31.8 | 15.8 | 93.7 | 30.4 | 65.1 | 12.5 | 100.5 | 10.2 | 76.2 | 2.3 |  | % of Growth inhibition (LS9-ID1 [1]; toxin 2.00 g/L): 83.3% |
| O=Cc1ccc(CO)o1 [5-Hydroxymethylfurfural] | 100 | 4.0 |  |  |  |  |  |  |  |  |  |  |  |  |  |  |  |  |  |  | % Growth With Hexadecane (LS9-ID1 [2]; Table 9, toxin 2.0 g/L): 57.1%; % Growth No solvent (LS9-ID1 [2]; Table 9, toxin 2.0 g/L): 39.8%; % Growth With Eicosadecene (LS9-ID1 [2]; Table 10, toxin 2.0 g/L): 55.3%; % Growth No solvent (LS9-ID1 [2]; Table 10, toxin 2.0 g/L): 51.8%; % Growth With C2:C18 (LS9-ID1 [2]; toxin 4.0 g/L, ethyl oleate 1:3, 24 h, % of no-toxin control): 20.9%; % Growth No solvent (LS9-ID1 [2]; toxin 4.0 g/L, 24 h, % of no-toxin control): 4.7%; % Growth With C2:C18 (LS9-ID1 [2]; toxin 8.0 g/L, ethyl oleate 1:3, 24 h, % of no-toxin control): 9.1%; % Growth No solvent (LS9-ID1 [2]; toxin 8.0 g/L, 24 h, % of no-toxin control): 2.2% |
| O=Cc1ccco1 [Furfural] | 100 | 3.5 | 0 | 60.0 | 18.5 |  |  | 38.5 | 17.7 | 56.7 | 33.3 | 71.9 | 40.0 | 53.6 | 21.5 | 72.7 | 35.5 | 43.2 | 4.5 | 49.7 | % Growth With C1:C12 (LS9-ID1 [2]; Table 8, toxin 3.0 g/L): 16.7%; % Growth No solvent (LS9-ID1 [2]; Table 8, toxin 3.0 g/L): 6.1%; % Growth No solvent (LS9-ID1 [2]; Table 11, toxin 1.5 g/L): 33.3%; % Growth With Pretreatment (LS9-ID1 [4]): 69.6%; % Growth No solvent (LS9-ID1 [4]): 33.3% |
| COc1cc(C=O)cc(OC)c1O [Syringaldehyde] | 100 | 2.5 |  |  |  |  |  | 40.7 | 19.5 | 48.2 | 8.8 | 41.0 | 34.4 | 14.8 | 6.6 | 94.8 | 16.2 | 92.7 | 2.0 | 39.2 | % Growth No solvent (LS9-ID1 [2]; Table 11, toxin 1.5 g/L): 8.8%; % Growth With Co-treatment (LS9-ID1 [4]; co-treatment): 61.2%; % Growth With Pretreatment (LS9-ID1 [4]): 83.3%; % Growth No solvent (LS9-ID1 [4]): 8.8% |
| O=Cc1ccc(O)cc1 [4-hydroxybenzaldehyde] | 100 | 1.25 |  |  |  | 33.0 | 20.2 | 53.8 | 6.2 | 11.2 | 9.6 |  |  |  |  |  |  |  |  |  | % Growth With C2:C18 (LS9-ID1 [2]; toxin 0.63 g/L, ethyl oleate 1:3, 24 h, % of no-toxin control): 68.0%; % Growth No solvent (LS9-ID1 [2]; toxin 0.63 g/L, 24 h, % of no-toxin control): 70.0%; % Growth With C2:C18 (LS9-ID1 [2]; toxin 1.25 g/L, ethyl oleate 1:3, 24 h, % of no-toxin control): 60.0%; % Growth No solvent (LS9-ID1 [2]; toxin 1.25 g/L, 24 h, % of no-toxin control): 45.0%; % FAME titer With C2:C18 (LS9-ID1 [3]; toxin 0.63 g/L): 72.6%; % FAME titer No solvent (LS9-ID1 [3]; toxin 0.63 g/L): 54.3%; % FAME titer With C2:C18 (LS9-ID1 [3]; toxin 1.25 g/L): 31.8%; % FAME titer No solvent (LS9-ID1 [3]; toxin 1.25 g/L): 18.1% |
